# From patent publication US20090252754A1, “Vaccines containing the hiv tat protein as an adjuvant for the enhancement of cytotoxic t-cell responses” (priority 2003, published 2009)
# What was measured:
# [1] = tested on: proteasomes purified from MIN-Tat and MIN-0; assay: In vitro degradation of CLG+5 epitope precursor by purified proteasomes (HPLC, IFN-γ ELISPOT of fractions); format: biochemical, human
# Method: 500 μg of synthetic peptide were incubated with 127 μg of purified proteasomes in 300 μl of buffer (25 mM Tris HCL pH 7.4, 5 mM MgCl2, 500 μM EDTA pH 8.0, 1 mM DTT, 2 mM ATP) at 37° C. At the indicated time points, 60 μl of sample were collected and the reaction was stopped by adding 2 volumes of ethanol at 0° C.
# Digestion mixtures were centrifuged at 5000 rpm for 5 minutes. 80 μl of supernatant were collected and peptide digests were separated by reverse-phase HPLC at the flow rate of 0.7 ml/min, as follows: linear gradient of 0-100% of solution B (acetonitrile 100% with 0.1% TFA) for 25 min, followed by linear gradient of 0-100% for solution A (water 100% with 0.1% TFA) for 5 min. The fractionation was simultaneously monitored at 210 and 280 nm. […]
# Plates were incubated for 24 h at 37° C., 5% CO2 and then washed three times with PBS and three times with washing buffer (PBS 0.05% Tween 20) before 100 μl of biotinylated anti-IFN-γ MAb (1 μg/ml; Endogen, Woburn, Mass.) were added, and incubated at 37° C. for 60 min. […] Wells were washed, and individual IFN-γ producing cells were detected using ABC chromogen kit (Sigma, Saint Louise, Mo.). IFN-γ-secreting T cells were counted by direct visualisation. The number of specific IFN-γ-secreting T cells, expressed as spot-forming cells (SFC) per 10^6 cells, was calculated by subtracting the negative control value. […]
# [2] = tested on: MIN and MON LCL's (EBV IVT, AVF, YLQ, CLG epitopes); assay: Cytotoxicity assay of EBV epitope-specific CTLs against LCL targets
# Method: HLA A11-restricted EBV-specific CTL cultures reacting against the EBNA4-derived [sequence] (SEQ ID NO 280) (IVT) and [sequence] […] (SEQ ID NO 282) (CLG) epitope, corresponding to amino acid 426-434^28, and the Lmp1-derived [sequence] […] The first stimulation was performed in RPMI 1640 medium containing 10% FCS. A second and a third stimulation were performed in the same conditions on day 7 and day 14. Starting from day 8 the medium was supplemented with 10 U/ml rIL-2 (Chiron, Milan, Italy).
# Target cells were labelled with Na2^51CrO4 for 90 min at 37° C. Cytotoxicity tests were routinely run at different effector: target ratios in triplicate. Percent specific lysis was calculated as 100×(cpm sample−cpm medium)/(cpm Triton X-100−cpm medium)^27. Spontaneous release was always less than 20%.
# To this purpose, the HLA-2 and -A11 positive MIN LCL and the HLA-A2 positive MON LCL, transduced or not with Tat, were tested as target in cytotoxic assays using CTL cultures specific for the IVT, AVF, CLG and YLQ epitopes (FIG. 6).
# [3] = tested on: proteasomes purified from Jurkat cells; assay: Enzymatic assays of proteasomes purified from Jurkat cells treated with Tat; format: biochemical, human; conditions: proteasomes from Jurkat cells treated for 24 h with 1 μg/ml Tat protein vs control cells
# Method: Cells were lysed with glass beads as previously described (4). Supernatants were ultracentrifuged for 1 h at 100,000 g and loaded into an affinity column containing a matrix derivatised with the MCP21 mAb specific for the α2 subunit of the proteasome (Affinity, Exeter, UK). Proteasomes were eluted with 25 mM Tris-HCl pH 7.5 containing 2 M NaCl, and 0.5 ml fractions were collected. Homogeneity of the eluted material was confirmed by analysis of an aliquot by SDS 12% PAGE and Coomassie blue staining of the gel. Fractions containing proteasomes were combined and dialysed against 25 mM Tris-HCl pH 7.5. Protein concentration was determined using the BCA method (Pierce Chemical, Rockford, Ill.).
# The chymotrypsin-like, trypsin-like and post-acidic activities of purified proteasomes were tested using the fluorogenic substrates Suc-LLVY-AMC, Boc-LRR-AMC and Ac-YVAD-AMC, respectively, as previously described (4). Fluorescence was determined by a fluorimeter (Spectrafluor plus, Tecan, Salzburg, Austria). Proteasome activity is expressed as arbitrary fluorescence units.
# To investigate whether the differences in subunit composition correlated with differences in enzymatic activity, we analysed the cleavage specificity of equal amounts of proteasomes purified from Jurkat cells treated for 24 h with 1 μg/ml Tat protein or from control cells. […]
# [4] = tested on: proteasomes purified from MIN and MON LCL's; assay: Enzyme assays of proteasomes purified from LCL's (Suc-LLVY-AMC, Boc-LRR-AMC, Ac-YVAD-AMC); format: biochemical, human
# Method: Cells (5×10^7) were washed in cold PBS and resuspended in buffer containing 50 mM Tris-HCl pH 7.5, 5 mM MgCl2, 1 mM dithiothreitol (DTT, Sigma), 2 mM ATP, 250 mM sucrose. Glass beads equivalent to the volume of the cellular suspension were added and cells were vortexed for 1 min at 4° C. Beads and cell debris were removed by 5 minutes centrifugation at 1000×g, followed by 20 minutes centrifugation at 10,000×g. Supernatants were ultracentrifuged for 1 hour at 100,000×g^44. Supernatants were loaded into an affinity column containing an agarose matrix derivatised with the MCP21 mAb specific for the α2 subunit of the proteasome (Affinity, Exeter, UK). […] Protein concentration was determined using BCA protocol (Pierce Chemical).
# The fluorogenic substrates Suc-LLVY-AMC, Boc-LRR-AMC and Ac-YVAD-AMC were used to measure chymotrypsin-like, trypsin-like and post-acidic proteasome activities, respectively. […] Fluorescence was determined by a fluorimeter (Spectrafluor plus, Tecan, Salzburg, Austria) using an excitation of 360 nm and emission of 465 nm. Proteasome activity is expressed in arbitrary fluorescence units^11.
# To investigate whether the differences in subunit composition detected by Western blot analysis correlated with differences in enzymatic activity, we analysed the cleavage specificity of equal amount of proteasomes isolated from MIN-Tat and MON-Tat cells or control cells. […]
# [5] = LCL expressing endogenous Tat vs empty vector
# [6] = MIN LCL treated with 0.1 μg/ml Tat protein for 24 hours vs untreated
substance,measurement,setting,value
"Tat: HIV-1 Tat protein from HTLV type IIIB isolate, expressed in E. Coli or endogenously in cells; wild type SEQ ID NO 284",degradation of the CLG+5 peptide precursor,[1]; proteasomes from Tat-expressing cells (MIN-Tat) vs empty vector (MIN-0),more efficiently
same,generation of the immunogenic CLG peptide,"[1]; proteasomes from Tat-expressing cells, 120 min digests, CLG-specific CTL ELISPOT",generate with more efficiency
same,IVT- and AVF-specific CTL killing,[2]; [5],decrease
same,YLQ- and CLG-specific killing,[2]; [5],increase
same,lysis by YLQ- and CLG-specific CTLs,[2]; [6],lysed at higher efficiency
same,sensitivity to IVT- and AVF-specific CTL killing,[2]; [6],less sensitive
same,"chymotryptic-like, tryptic-like and post-acidic activities",[3],all augmented
same,three proteolytic activities of proteasomes,[4]; proteasomes from MIN and MON LCL's treated with 0.1 μg/ml of Tat (data not shown),increase of all three proteolytic activities
same,"chymotryptic-like, tryptic-like and post-acidic activities of proteasomes",[4]; proteasomes from MIN-Tat and MON-Tat cells vs control cells,higher
